Laboratory results from patent publication US4520024A, “Method of selectively blocking peripheral vascular serotonergic receptors” (Eli Lilly and Company, priority 1983, dated 1985).

How the values were obtained:
[1] = test system: conscious spontaneously hypertensive rats (SHR); assay: In vivo studies, conscious SHR, mean arterial blood pressure; design: species or system rat; conditions: intraperitoneal, 10 mg./kg. dose level
Source text: Twenty-four week old SHR (325-425 g.) rats were anesthetized with halothane. They were then implanted with femoral arterial and venous catheters. The tips of the arterial and venous catheters were positioned in the abdominal aorta below the renal arteries and lower abdominal vena cava, respectively. The catheters were routed subcutaneously to an exit point at the base of the skull and then through a small leather harness fastened around the forequarters of each animal. The animals were allowed a 3-4 day recovery period after surgery. On the day before a given experiment, the rats to be used in that experiment were conditioned to the experimental surroundings for about 6 hours. In carrying out the determination, the harness on the back of each animal was connected to a spring-tether through which arterial and venous extension tubing were routed. The opposite end of the tubing was connected to a water tight swivel. This system permitted direct recording of blood pressure in conscious, free-moving animals. Mean arterial blood pressure was measured via a Statham strain gauge transducer and recorded on a multichannel oscillograph. The rats were equilibrated for at least 30 minutes prior to the initiation of the experimental protocol. During this equilibration period, the animals preened themselves and the blood pressure was quite labile. After this period, the animals appeared to sleep and pressure was stable. Following a control blood pressure measurement, the rats were dosed with ketanserin, benzoctamine, 1-(1-naphthyl)piperazine or the experimental vehicle via the intraperitoneal route. Blood pressure was monitored at various time intervals after dosing.

5HT2 receptors [2] = target: T1, 5HT2 receptors (Rattus norvegicus, UniProt P14842); assay: Apparent dissociation constant, antagonism of serotonin-induced contraction in rat jugular vein; type: cell-based; design: from tissue; host or cells: whole animal: pithed SHR, vascular tissue in vivo; conditions: serotonin as agonist, antagonist incubated one hour, read-out: -log KB for 5HT2 receptors (converted)
Source text: (§1) Male Wistar rats (150-300 gram weight) were killed and their external jugular veins and thoracic aortas dissected free of connective tissue, cannulated in situ and placed in a modified Krebs' bicarbonate buffer in a suitable tissue bath. Two L-shaped 30-gauge stainless-steel hypodermic needles were inserted in each cannula and the dissected vessels gently pushed onto the needles. One needle was attached with thread to a stationary glass rod and the other to the transducer. [The procedure employed was that described by Hooker, Calkins and Fleisch, Blood Vessels, 14, 1, (1977) for use with circular smooth muscle preparations.]
(§2) The modified Krebs' bicarbonate buffer had the following makeup: (concentrations in millimoles): sodium chloride, 118.2; potassium chloride, 4.6; calcium chloride dihydrate, 1.6; potassium dihydrogenphosphate, 1.2; magnesium sulfate, 1.2; dextrose, 10.0; sodium bicarbonate, 24.8; and water q.s. to 1000 g. […] Isometric contractions were recorded as changes in grams of force on a Beckman Dynograph with Statham UC-3 transducers and microscale accessory attachment. […] Contraction to serotonin was evaluated in the jugular vein since this tissue produces marked responses to serotonin in the absence of alpha receptors--see Cohen and Wiley, J. Pharm. […] Alpha receptor antagonist activity was evaluated in the aorta. […]

alpha1 receptor = assay: In vivo studies, pithed SHR, pressor response to methoxamine; design: species or system rat; conditions: i.p., rank order among three drugs
Procedure: SHR were anesthesized with halothane, femoral arterial and venous catheters implanted as before and the trachea cannulated. Each rat was pithed by passing a steel rod through the right orbit and down the entire length of the spinal column. The steel rod remained in place for the duration of the experiment. Immediately after pithing, the rats were ventilated with room air via a rodent respirator which eliminated any anesthetic effects. […] The response was recorded and the blood pressure allowed to recover to control levels. […] The test drugs were prepared fresh daily and administered by the intraperitoneal route. Benzoctamine and 1-(1-naphthyl)piperazine were administered at a 10 mg./kg. dosage and ketanserin at a 1 mg./kg. dosage.

[3] = test system: alpha-adrenergic receptors; assay: Apparent dissociation constant, antagonism of norepinephrine-induced contraction in rat aorta; type: cell-based
Source text: as §1, §2

5HT2 receptors [4] = target: T1, 5HT2 receptors; assay: In vivo studies, pithed SHR, pressor response to serotonin; design: from tissue; host or cells: whole animal: pithed SHR, vascular tissue in vivo; conditions: i.p., rank order among three drugs
Procedure: SHR were anesthesized with halothane, femoral arterial and venous catheters implanted as before and the trachea cannulated. Each rat was pithed by passing a steel rod through the right orbit and down the entire length of the spinal column. The steel rod remained in place for the duration of the experiment. Immediately after pithing, the rats were ventilated with room air via a rodent respirator which eliminated any anesthetic effects. An equilibration period of 15 minutes was observed prior to control measurements and administration of drugs or vehicle i.p. Increasing doses of serotonin or methoxamine were injected i.v. 15 minutes after the equilibration period. The response was recorded and the blood pressure allowed to recover to control levels. […] The test drugs were prepared fresh daily and administered by the intraperitoneal route. Benzoctamine and 1-(1-naphthyl)piperazine were administered at a 10 mg./kg. dosage and ketanserin at a 1 mg./kg. dosage.

T1 sequence (P14842 whole entry): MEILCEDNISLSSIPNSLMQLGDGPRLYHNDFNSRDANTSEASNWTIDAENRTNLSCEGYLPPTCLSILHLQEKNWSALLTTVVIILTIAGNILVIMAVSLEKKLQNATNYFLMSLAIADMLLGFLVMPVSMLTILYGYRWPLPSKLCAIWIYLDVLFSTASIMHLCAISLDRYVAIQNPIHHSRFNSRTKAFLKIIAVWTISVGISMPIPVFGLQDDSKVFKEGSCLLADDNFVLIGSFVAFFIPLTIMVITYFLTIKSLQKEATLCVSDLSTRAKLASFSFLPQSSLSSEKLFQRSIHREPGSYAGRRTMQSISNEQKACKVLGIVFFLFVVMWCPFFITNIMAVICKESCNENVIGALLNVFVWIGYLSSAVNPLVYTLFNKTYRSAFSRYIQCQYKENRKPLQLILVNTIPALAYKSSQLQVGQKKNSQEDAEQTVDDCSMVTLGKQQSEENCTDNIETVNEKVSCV

inhibition of the pressor response to serotonin (5HT2 receptors [4]; 1 mg./kg.)	SMILES	blood pressure lowering [1]	Kb (5HT2 receptors [2])	inhibition in the pressor response to methoxamine (alpha1 receptor; 10 mg./kg.)	-log KB for alpha-adrenergic receptors ([3]; rat thoracic aorta, norepinephrine as agonist, antagonist incubated one hour, 60 min)	lower affinity for alpha-adrenergic receptors than for 5HT2 receptors ([3]; ratio of affinities, 5HT2 versus alpha-adrenergic)	inhibition of the pressor response to serotonin (5HT2 receptors [4]; 10 mg./kg.)	inhibition in the pressor response to methoxamine (alpha1 receptor; 1 mg./kg.)
–	c1ccc2c(N3CCNCC3)cccc2c1 [1-(1-naphthyl)piperazine]	ineffective as a blood pressure lowering agent	1.78 nM	the least	5.38	approximately 2000 fold	–	–
–	CNCC12CCC(c3ccccc31)c1ccccc12 [benzoctamine]	lowered blood pressure as did ketanserin but to a lesser degree	–	second	–	–	then benzoctamine	–
greatest	O=C(c1ccc(F)cc1)C1CCN(CCn2c(=O)[nH]c3ccccc3c2=O)CC1 [ketanserin]	produced the greatest fall in blood pressure	–	–	–	–	–	greatest effect
